Source: patent US12115233B2, “Imaging and radiotherapeutics agents targeting fibroblast-activation protein-α (FAP-α)” (The Johns Hopkins University, priority 2017, dated 2024)

Columns and labels:
[1] = system: FAP-positive cell lines (NCIH2228, U87, and SKMEL24); assay: Cellular uptake of XY-FAP-01 in FAP-positive cell lines (fluorescence imaging); assay type: cell-based, human
Text: (§1) 1.5 Cell lines. Six human cancer cell lines were used to assess binding to FAP: glioblastoma (U-87-MG), melanoma (SK-MEL-24), prostate (PC-3), non-small cell lung cancer (NCI-H2228), colorectal carcinoma (HCT 116), and lung squamous cell carcinoma (NCI-H226). From the literature, U-87-MG, SK-MEL-24, and NCI-H2228 cell lines were identified as having high levels of FAP expression [FAP-positive (+)] whereas PC-3, NCI-H226, and HCT 116 cells expressed very low levels of FAP [FAP-negative(−)]. These expression profiles were further confirmed via flow cytometry with an APC-conjugated anti-FAP antibody (R&D Systems, Minneapolis, MN) and quantitative real-time PCR. All cell lines were purchased from American Type Culture Collection (ATCC, Manassas, VA).
(§2) 1.6 Cellular Uptake Studies. All cellular uptake and specific binding studies were performed in triplicate to ensure reproducibility. Cells were detached using 0.05% trypsin (Corning), resuspended in 1 million cell aliquots in binding buffer, and incubated with various concentrations (range, 50 nM to 0.78 nM) of XY-FAP-01 for 1 hour at 37° C. and 5% CO2. […] Cellular uptake was terminated by washing cells with ice cold PBS (1×) three times. Cells were resuspended in binding buffer and transferred to a 96-well plate for imaging. Images were acquired on the LI-COR Pearl Impulse Imager (Lincoln, NE) using an excitation wavelength of 785 nm and detection of the emission wavelength at 800 nm. Images were analyzed using the LI-COR Pearl Impulse Software (Version 2.0) and fluorescence intensity was corrected for background signal and normalized to well area.

[2] = Small-animal NIRF imaging, tracer clearance; assay type: in vivo, NOD/SKID mice; conditions: after one hour of distribution
Procedure: (§3) 1.7 Small-Animal Near Infrared Fluorescence (NIRF) Imaging. NIRF images were acquired on the LI-COR Pearl Impulse Imager using an excitation wavelength of 785 nm and a detection wavelength of 800 nm. Mice utilized for imaging studies were anesthetized with 3% isofluorane (v/v) and maintained at 1.5% isofluorane for the imaging procedure. NOD/SKID mice bearing FAP+ U-87-MG and FAP-PC-3 tumor xenografts were injected with 10 nmol of XY-FAP-01 via tail vein injection and images were acquired at 30 min, 1 h, 2 h, 2.5 h, and 4 h after injection of tracer.
(§4) 1.11 Xenograft Tumor Model. 6-week old female NOD/SCID mice were subcutaneously injected in the upper left and right flanks with 1 million U87(FAP+) cells and PC3 cells (FAP-) in RPMI 1640 media supplemented with 1% FBS. Mice were monitored for tumor size and used for optical or SPECT/CT imaging when the size of tumor reached around 100 mm3.

[3] = system: FAP+ U-87-MG tumor xenograft; assay: Small-animal NIRF imaging, FAP positive xenograft; assay type: in vivo, NOD/SKID mice
Procedure: as §3, §4

[4] = system: FAP-negative cell lines (PC3, NCIH226, and HCT116); assay: Cellular uptake of XY-FAP-01 in FAP-negative cell lines (fluorescence imaging); assay type: cell-based, human; conditions: all concentrations (50 nM to 0.78 nM)
Text: as §1
as §2, with “Cells were resuspended in binding buffer and transferred to a 96-well plate for imaging. Images were acquired on the LI-COR Pearl Impulse Imager (Lincoln, NE) using an excitation wavelength of 785 nm and detection of the emission wavelength at 800 nm.” left out

human recombinant FAP = target: T1, human recombinant FAP (Homo sapiens, UniProt Q12884); assay: FAP Inhibition Assay (fluorogenic FAP Assay Kit); assay type: biochemical; conditions: DPP substrate, 10 minutes at room temperature, Ki from IC50 by Cheng-Prusoff conversion, read-out: enzyme inhibitory constant (Ki)
T1 construct: purchased BPS Bioscience, San Diego, CA
T1 sequence (Q12884 26-760 limits assumed): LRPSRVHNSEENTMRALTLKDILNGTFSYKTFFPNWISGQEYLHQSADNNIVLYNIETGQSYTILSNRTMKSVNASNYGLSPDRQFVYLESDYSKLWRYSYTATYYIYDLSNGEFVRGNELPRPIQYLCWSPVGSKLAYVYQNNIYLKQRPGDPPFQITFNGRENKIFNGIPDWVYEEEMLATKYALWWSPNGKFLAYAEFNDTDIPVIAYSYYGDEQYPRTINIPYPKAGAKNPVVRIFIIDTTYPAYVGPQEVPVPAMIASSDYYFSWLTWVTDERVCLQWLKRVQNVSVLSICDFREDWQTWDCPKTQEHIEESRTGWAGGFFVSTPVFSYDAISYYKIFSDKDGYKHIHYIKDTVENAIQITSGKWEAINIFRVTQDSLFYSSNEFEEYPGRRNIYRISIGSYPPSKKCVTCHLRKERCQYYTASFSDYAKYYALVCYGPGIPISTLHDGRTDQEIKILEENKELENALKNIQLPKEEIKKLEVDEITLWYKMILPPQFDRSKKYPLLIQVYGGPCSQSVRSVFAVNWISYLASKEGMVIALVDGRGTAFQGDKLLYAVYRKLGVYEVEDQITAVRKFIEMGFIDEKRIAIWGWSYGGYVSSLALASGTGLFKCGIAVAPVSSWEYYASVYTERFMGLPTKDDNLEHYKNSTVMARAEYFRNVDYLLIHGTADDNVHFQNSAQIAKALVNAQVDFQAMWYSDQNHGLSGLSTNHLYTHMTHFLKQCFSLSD
Procedure: 1.4 FAP Inhibition Assay. The inhibitory activity of XY-FAP-01 was determined using a fluorogenic FAP Assay Kit (BPS Bioscience, San Diego, CA). Briefly, XY-FAP-01, DPP substrate, and human recombinant FAP were loaded into a 96 well plate to initiate the enzyme reaction. The reaction was left for 10 minutes at room temperature before fluorescence was measured with a VICTOR3 V multilabel plate reader (PerkinElmer Inc., Waltham, MA). Data was normalized and semi-log inhibition curves were generated in order to determine the IC50 value (concentration of XY-FAP-01 where the enzyme activity is 50% inhibited) for XY-FAP-01 and subsequent enzyme inhibition constant (Ki) using the Cheng-Prusoff conversion. Generation of semi-log inhibition curves and IC50 values were done using GraphPad Prism (San Diego, CA).

FAP-PC-3 tumor xenograft = assay: Small-animal NIRF imaging, FAP negative xenograft; assay type: in vivo, NOD/SKID mice; conditions: all imaging time points (30 min to 4 h)
Procedure: as §3, §4

Ki (human recombinant FAP): 1.26 nM
SMILES: CC1(C)C(=CC=C2CCCC(C=CC3=[N+](CCCCCC(=O)NCCCOc4ccc5nccc(C(=O)NCC(=O)N6CCC[C@H]6C#N)c5c4)c4ccc(S(=O)(=O)[O-])cc4C3(C)C)=C2Oc2ccc(S(=O)(=O)O)cc2)N(CCCCS(=O)(=O)O)c2ccc(S(=O)(=O)O)cc21 [XY-FAP-01]
uptake of XY-FAP-01 in FAP-positive cell lines ([1]; 50 nM to 0.78 nM, 1 hour at 37° C.): concentration dependent uptake
XY-FAP-01 binding when preblocked with a DPP-IV specific inhibitor ([1]; FAP-positive cell lines, 25 nM tracer, preblock with Sitagliptin): did not result in a change of binding ability
concentration at which saturated binding was observed ([1]; FAP-positive cell lines, 1 hour at 37° C.): 25 nM
XY-FAP-01 binding when preblocked with a FAP and DPP-IV specific inhibitor ([1]; FAP-positive cells, 25 nM tracer, preblock with Val-boroPro (Talabostat)): significantly inhibited
uptake in vitro on FAP-α+ U87 cell line ([1]; summary statement): selective uptake
tracer clearance (NIRF) [2]: tracer clearance via the bladder was observed
tracer uptake in U-87-MG xenograft (NIRF) ([3]; 10 nmol via tail vein, as early as 30 minutes post injection): specific uptake
tracer uptake in the positive xenograft (NIRF) ([3]; after four hours of distribution): retained
uptake in vivo on FAP-α+ U87 tumor ([3]; summary statement): selective uptake
binding of XY-FAP-01 in FAP-negative cell lines [4]: no significant binding
tracer uptake in the FAP negative tumor (NIRF) (FAP-PC-3 tumor xenograft): no significant uptake
